Measured values published in the OligoGym collection.
Values joined by “and” are separate entries in the source; they are usually repeats but may differ in a detail not shown here. Equal entries are not always repeated. After the bases stand the sugars from the 5' end (letter, count) and the backbone: PS all phosphorothioate, else s phosphorothioate and o phosphodiester by linkage. Methylation of C is not given here. e = 2'-O-(2-methoxyethyl) (MOE); k = constrained ethyl (cEt); d = 2'-deoxy (DNA)

Target: IRF4
Details: ASO

Sequence	target mRNA inhibition (SK-MEL-28, 4 µM)	target mRNA inhibition (MM.1R, 1 µM)	further results
GTTCAGAAACCCTCAT (sugars k3 d10 k3, PS)	13%	–	–
CACGCAATGGCAAAAG (sugars k3 d10 k3, PS)	19%	–	–
GGAAGCACTGGCATTG (sugars k3 d10 k3, PS)	49%	–	–
AGTCGCGCAAGTCTAC (sugars k3 d10 k3, PS)	–	0%	–
AGACAGTGCGCCCCAA (sugars k3 d10 k3, PS)	–	-17%	–
TAGTAAATATCCTGTA (sugars k3 d10 k3, PS)	42%	–	–
TCAATAATCTCCCAGC (sugars k3 d10 k3, PS)	55%	–	–
CCTCGCTCAAAGACCA (sugars k3 d10 k3, PS)	50%	–	–
GTGTTTGCCATGGTAT (sugars k3 d10 k3, PS)	–	57% and 40%	target mRNA inhibition (MM.1R, 0.0625 µM): -1%; target mRNA inhibition (MM.1R, 0.25 µM): 13%; target mRNA inhibition (MM.1R, 4 µM): 70%
GCATAGTGATGAGATA (sugars k3 d10 k3, PS)	59%	–	–
CCAGTACAGTCCACTC (sugars k3 d10 k3, PS)	–	-6%	–
CTCATCACCGAACACA (sugars k3 d10 k3, PS)	–	8%	–
CATAACTCAGGCAAGG (sugars k3 d10 k3, PS)	36%	–	–
GTCATGGGACATTGGT (sugars k3 d10 k3, PS)	–	26%	–
ATGTGATAGCTGAGCT (sugars k3 d10 k3, PS)	–	26%	–
CTTCTTCTTTATGCGA (sugars k3 d10 k3, PS)	66%	–	–
CGCCAGTGACCACGAG (sugars k3 d10 k3, PS)	42%	–	–
TGGGAGTACCCGCAGA (sugars k3 d10 k3, PS)	26%	–	–
AGGCAGGGACCGCGCC (sugars k3 d10 k3, PS)	–	-11%	–
CGGGAATTTCCATTGG (sugars k3 d10 k3, PS)	50%	–	–
GCTAACTGGCCTCAAA (sugars k3 d10 k3, PS)	9%	–	–
TTGGTTGGCTGGTCTT (sugars k3 d10 k3, PS)	–	76% and 72%	target mRNA inhibition (MM.1R, 0.0625 µM): 40%; target mRNA inhibition (MM.1R, 0.25 µM): 58%; target mRNA inhibition (MM.1R, 4 µM): 89%
GAGGTTGCCGAGATAT (sugars k3 d10 k3, PS)	–	29%	–
AAGCGAGTCAGACAGT (sugars k3 d10 k3, PS)	–	-22%	–
CCGCAGCATCGAACTC (sugars k3 d10 k3, PS)	42%	–	–
AACCAAGAAATGCACC (sugars k3 d10 k3, PS)	33%	–	–

Sequence	target mRNA inhibition (SK-MEL-28, 4 µM)	target mRNA inhibition (MM.1R, 1 µM)	further results
GTGAACATGCCACTCA (sugars k3 d10 k3, PS)	62%	–	–
TAAAGACCTTAACCAA (sugars k3 d10 k3, PS)	30%	–	–
ACTGCTTGAGGTTTTC (sugars kdddddddddkekeke, PS)	–	21%	–
GTAAAGGAGTGCAGGA (sugars k3 d10 k3, PS)	9%	–	–
ATACATGTCTGGTTTA (sugars k3 d10 k3, PS)	–	4%	–
GCGCATTTCAGTAAAT (sugars k3 d10 k3, PS)	33%	–	–
ATGATGTATACCAACG (sugars k3 d10 k3, PS)	86%	–	–
ATGGCGAGTTGGCACA (sugars k3 d10 k3, PS)	–	49% and 48%	–
AAAAAAGGTGCAAGCC (sugars k3 d10 k3, PS)	7%	–	–
GCTGATAATTAATCTG (sugars k3 d10 k3, PS)	–	-9%	–
CTATAGTGTTCCAGGA (sugars kkkddddddddkekek, PS)	–	23%	–
ACGTGTGCTTGCCAAG (sugars kddddddddddkekek, PS)	–	47% and 37%	–
GCGCGGACGCACGGAG (sugars k3 d10 k3, PS)	2%	–	–
TGCTTGAGGTTTTCCT (sugars k3 d9 k3 e1, PS)	–	46%	–
GGCCGGCCCGGGCGCA (sugars k3 d10 k3, PS)	1%	–	–
AACCACAAGCAGTGAT (sugars k3 d10 k3, PS)	17%	–	–
CATTGGTACGGGATTT (sugars k3 d10 k3, PS)	16%	–	–
GTGTCTAAAGTCCCAT (sugars kkdddddddddekeke, PS)	–	32% and 23%	–
GACAATGGAGATACTT (sugars k3 d10 k3, PS)	–	33% and 37%	–
CAGTGACTTGCATCCA (sugars kkdddddddddkekek, PS)	–	26%	–
GAAAGGAGGTAGTGGC (sugars k3 d10 k3, PS)	23%	–	–
AAGTGGAACTCATAGG (sugars k3 d10 k3, PS)	–	25%	–
TAATCTGTATCATGCA (sugars k3 d10 k3, PS)	–	22%	–
CTGGAACATTGTTGGA (sugars k3 d10 k3, PS)	46%	–	–
CTATAGTGTTCCAGGA (sugars k3 d9 k3 e1, PS)	–	31%	–
GCACGCAAGGCTCGGA (sugars k3 d10 k3, PS)	–	7%	–

Sequence	target mRNA inhibition (SK-MEL-28, 4 µM)	target mRNA inhibition (MM.1R, 1 µM)	further results
CCACCTCCATTCTAAC (sugars k3 d10 k3, PS)	-15%	–	–
CACGAGGAAGCATAGA (sugars k3 d10 k3, PS)	56%	–	–
AAAGAATGGCGCATAG (sugars k3 d10 k3, PS)	–	10%	–
AAATAGCATCAGAGCT (sugars k3 d10 k3, PS)	13%	–	–
ATGGAGATACTTGTAC (sugars k3 d10 k3, PS)	62%	–	–
AAGATGACTCCATGAG (sugars k3 d10 k3, PS)	64%	–	–
AGTTGTAAATGAGTCG (sugars kdddddddddkekeke, PS)	–	47%	–
TGAAACTGAGAGTGCG (sugars k3 d10 k3, PS)	19%	–	–
GGAGCTAGTTTTATGT (sugars k3 d10 k3, PS)	–	-28%	–
CAAAGACCAGCTTTTT (sugars k3 d10 k3, PS)	50%	–	–
TGTTACCGATGCTTCA (sugars kkdddddddddkekek, PS)	–	28% and 21%	–
GTAAAGCCCAAAGTTA (sugars k3 d10 k3, PS)	27%	–	–
TGCATGAGGGTGACAC (sugars k3 d10 k3, PS)	45%	–	–
ACGCAATCTTCTGCTG (sugars k3 d10 k3, PS)	52%	–	–
CCATTAGAAAAGCAGG (sugars k3 d10 k3, PS)	80% and 78%	–	–
AGGTAAGGGCCCCGTG (sugars k3 d10 k3, PS)	47%	–	–
TTGATGTGATAGCTGA (sugars kkddddddddddkeke, PS)	–	11%	–
CAGGTTTCATTTCATT (sugars k3 d10 k3, PS)	60%	–	target mRNA inhibition (MM.1R, 0.074 µM): -1%; target mRNA inhibition (MM.1R, 0.222 µM): 13%; target mRNA inhibition (MM.1R, 0.666 µM): 10%; target mRNA inhibition (MM.1R, 2 µM): 39%; target mRNA inhibition (SK-MEL-28, 0.185 µM): 15%; target mRNA inhibition (SK-MEL-28, 5 µM): 71%; target mRNA inhibition (SK-MEL-28, 15 µM): 91%
AGTTGTAAATGAGTCG (sugars k3 d10 k3, PS)	85%	–	–
AGGTAGTGGCCCCAGC (sugars k3 d10 k3, PS)	60%	–	–
ACTGAACCATGTTCCT (sugars k3 d10 k3, PS)	51%	–	–
TCTATAGTGTTCCAGG (sugars kkkdddddddddkeke, PS)	–	68%	target mRNA inhibition (MM.1R, 0.074 µM): 22%; target mRNA inhibition (MM.1R, 0.222 µM): 34%; target mRNA inhibition (MM.1R, 0.666 µM): 56%; target mRNA inhibition (MM.1R, 2 µM): 81%
GCTCACTAAGCTTGAT (sugars k3 d10 k3, PS)	56%	–	–
ACAGAGGACTTCGGGA (sugars k3 d10 k3, PS)	-36%	–	–
GATGTGATAGCTGAGC (sugars k2 d9 e3 k2, PS)	–	52%	–
TAAAGAATGAGGGTCA (sugars k3 d10 k3, PS)	45%	–	–

Sequence	target mRNA inhibition (SK-MEL-28, 4 µM)	target mRNA inhibition (MM.1R, 1 µM)	further results
TGCTTTGGGCACCAAA (sugars k3 d10 k3, PS)	52%	–	–
GTGACCCACATAACTC (sugars k3 d10 k3, PS)	–	7%	–
TGCTTATCAATGCCAA (sugars k3 d10 k3, PS)	70%	35% and 31%	target mRNA inhibition (MM.1R, 0.074 µM): 12%; target mRNA inhibition (MM.1R, 0.222 µM): 12%; target mRNA inhibition (MM.1R, 0.666 µM): 16%; target mRNA inhibition (MM.1R, 2 µM): 50%; target mRNA inhibition (MM.1R, 4 µM): 69% and 66%
GGCTGAAACGGTCAGC (sugars k3 d10 k3, PS)	–	-27%	–
GGCAAGTTCTGCTGTC (sugars k3 d10 k3, PS)	58%	–	–
AAGCTTGATAAAGGCT (sugars k3 d10 k3, PS)	–	3%	–
CTGGAGTGAACCCTTC (sugars k3 d10 k3, PS)	56%	–	–
AATCTTCTGGATTGCT (sugars k3 d10 k3, PS)	–	14%	–
GAGAAAACTCCTGAGT (sugars k3 d10 k3, PS)	5%	–	–
TAGATCTGTGGTAATC (sugars k3 d10 k3, PS)	–	20% and 6%	–
GAACAGGACCTGGTCC (sugars k3 d10 k3, PS)	25%	–	–
ATTTTTTGGTTAGTCC (sugars k3 d10 k3, PS)	53%	–	–
GCGCTCTCTCTGTAAC (sugars k3 d10 k3, PS)	–	-7%	–
ACTGGCATTGAGACGG (sugars k3 d10 k3, PS)	72% and 79%	–	–
AAAAATGTCCCATCCA (sugars k3 d10 k3, PS)	30%	–	–
CCTCAGGGAATCCCTT (sugars k3 d10 k3, PS)	30%	–	–
AAGTTCATGTAAAGTC (sugars k2 d9 e3 k2, PS)	–	21% and 3%	–
GGAAAGAGGCACCCTC (sugars k3 d10 k3, PS)	28%	–	–
CTTATAGCACTCTCCT (sugars k3 d10 k3, PS)	33%	–	–
TTAAAGAGTGGTACAC (sugars k3 d10 k3, PS)	6%	–	–
TACTGCTTGAGGTTTT (sugars e1 k2 d9 k2 e2, PS)	–	6%	–
GTGACTTAATTCTGGG (sugars k3 d10 k3, PS)	51%	–	–
TCACAAGCTGGGCCTT (sugars k3 d10 k3, PS)	30%	–	–
